For orientation: EC50 means the concentration giving half of the maximal effect.

The values that follow come from patent US20120252721A1 (priority 2011, published 2012).

Some results are limits rather than exact numbers.

For assay [1], the system named is HCV genotype 1b replicon, NS5B C316Y. Kind of assay: Luciferase replicon transient transfection assay, genotype 1b NS5B C316Y. The class given is cell-based, hepatitis C virus. How it is done:
The luciferase replicon transient transfection assay measures the ability of a test compound to inhibit the replication of a transiently-transfected HCV luciferase-bearing wild-type or mutant replicon in cured human hepatoma cells (Huh7.5). The inhibition of HCV replication was measured by quantification of luciferase protein expression. This assay has been validated using a panel of genotype 1a and 1b replicons bearing mutations known to be associated with resistance to BMS-790052. Briefly, subconfluent Huh7.5 cells were electroporated with 10 μg of wild-type or mutant luciferase-bearing HCV replicon RNA. The cells were then seeded in 96-well opaque white plates at 3×10^4 cells/well in 150 μL/well and incubated for 4 hrs at 37° C./5% CO2. […] The plates were agitated on a rotating platform at room temperature for 3 min and read in a Victor^3V microplate reader (Perkin-Elmer) using a 700 nm cut-off filter with a 1 sec read time. EC50 values were calculated from dose response curves from the resulting best-fit equations determined by Microsoft Excel and XLfit 4.1 software.
To determine the replication capacity of each mutant relative to the wild-type parental replicon, transfected cells were plated on two plates and were not treated with compound. Luciferase activity was measured at time points of 4 hrs and 4 days after plating for each replicon. […]
A general note: Replicon systems follow genome replication, usually without infectious particles.

Another assay concerns HCV genotype 2a. Kind of assay: Genotype 2a assay (NS5A-intergenotypic luciferase replicon / genotype 2a infectious virus assay). The format is cell-based. The note with it: Hepatitis C virus, read-out: EC50 2a. In short, it runs like this: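 Cured Huh7 cells stably carrying a 1b luciferase replicon with genotype 2a NS5A were titrated in the luciferase assay. Infectious-virus format: HPC hepatoma cells were infected with genotype 2a virus while dosed with ten 5-fold compound dilutions, the inoculum was removed at 16 h, and dosing continued 4 more days at 37 °C. EC50 came from HCV core ELISA (A490).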

`COC(=O)N[C@H](C(=O)N1CCC[C@H]1c1nc2cc(-c3csc4c(-c5ccc(-c6cnc([C@@H]7CCCN7C(=O)[C@H](NC(=O)OC)c7ccccc7)[nH]6)cc5)csc34)ccc2[nH]1)C(C)C` [Compound A169, [(S)-1-((S)-2-{6-[6-(4-{(S)-2-[1-((R)-2-methoxycarbonylamino-2-phenyl-acetyl)-pyrrolidin-2-yl]-3H-imidazol-4-yl}-phenyl)-thieno[3,2-b]thiophen-3-yl]-1H-benzoimidazol-2-yl}-pyrrolidine-1-carbonyl)-2-methyl-propyl]-carbamic acid methyl ester] returned an EC50 in assay [1] (Hepatitis C virus, genotype 1b, NS5B mutation C316Y (confers resistance to Benzofuran/Benzothiadiazine)) of 2.3 pM. Also, the Ratio in assay [1] ({}) came to 1.37. `COC(=O)N[C@H](C(=O)N1CCC[C@H]1c1ncc(-c2ccc(-c3csc4c(-c5cnc([C@@H]6CCCN6C(=O)[C@@H](NC(=O)OC)C(C)C)[nH]5)csc34)cc2)[nH]1)C(C)C` [Compound A15, [(S)-1-((S)-2-{4-[4-(6-{2-[(S)-1-((S)-2-methoxycarbonylamino-3-methyl-butyryl)-pyrrolidin-2-yl]-3H-imidazol-4-yl}-thieno[3,2-b]thiophen-3-yl)-phenyl]-1H-imidazol-2-yl}-pyrrolidine-1-carbonyl)-2-methyl-propyl]-carbamic acid methyl ester]: the EC50 in the assay on HCV genotype 2a is < 100 pM.
